Results reported in publication PMC8620685, “Effect of Selected Silyl Groups on the Anticancer Activity of 3,4-Dibromo-5-Hydroxy-Furan-2(5H)-One Derivatives” (Pharmaceuticals, 2021).
“Also recorded” adds a separate entry of the source. Read-outs that look alike come from different tables or passages of the source.

What was measured:
SJSA-1 = experiment: MTT assay, SJSA-1; type: cell-based; details: Homo sapiens, read-out: IC50 (cytotoxicity), SJSA-1
Experimental: (§1) The in vitro antitumor activities of the MBA and its derivatives (Table 2) were assayed against a panel of human cancer cell lines (HCT116, HCT-116 ^−/−p53, HT-29, MCF-7, SJSA-1, U2OS, HepG2 and Hep3B) using the MTT assay. As a reference drug we used 5-fluorouracil (5-FU). […] On the basis of in vitro antiproliferative activities, compounds 3b and 3c were selected for further mechanistic studies in the HCT-116 cell line.
(§2) Human cells lines: colon cancer (HCT-116 wt, HT-29), non-small lung carcinoma (A549), and bronchial epithelial cells (BEAS-2B) were obtained from American Type Culture Collection (ATCC, Manassas, VA, USA). Isogenic cell line HCT 116 p53^−/− (deleted both p53 alleles) were a gift from Dr. Bert Vogelstein. Other cell lines, namely MCF-7, SJSA-1, U2OS, HepG2, and Hep3B were received from the collection stored at Centre of Biotechnology of Silesian University of Technology. All cells were grown in DMEM with a high glucose medium (Sigma-Aldrich, Taufkirchen, Germany) supplemented with 10% (v/v) inactivated fetal bovine serum (FBS) (EURx, Gdańsk, Poland) and 1% antibiotics (10,000 μg/mL of streptomycin and 10,000 units/ml of penicillin) (Sigma-Aldrich, Taufkirchen, Germany) at 37 °C in humidified 5% CO2. The maximum concentration of DMSO in the culture media was 0.4%.
(§3) 5 × 10^3 cells per well for the MCF-7 cell line and 2.5 × 10^3 cells per well for the other cell lines were seeded in 96-well plates to adhere for 24 h. Afterward, the cells were treated with tested compounds. After 72 hours of incubation, 50 μL 0.5 mg/ml solution of MTT (3-(4,5-dimethylthiazol-2-yl)-2,5-diphenyl-2H-tetrazolium bromide) were added to each well and the plates were incubated for 3 h at 37 °C. Next, the MTT solution was removed from the plates and formed formazan crystals were dissolved in 2-propanol (Avantor Performance Materials, Gliwice, Poland) containing 0.04 M hydrochloric acid (Avantor Performance Materials, Gliwice, Poland). The absorbance was measured at 570 nm wavelength using a multiwall plate reader (BioTek, Winooski, VT, USA). The experiment was performed at a minimum of 3 independent replicates. Cell viability was set as a percentage versus vehicle control. IC50 was defined as a concentration of a drug that decreased cell viability by 50% relative to the untreated control.

MCF-7 = experiment: MTT assay, MCF-7; type: cell-based, human; details: Homo sapiens, MCF7, 72 h, read-out: IC50 (cytotoxicity), MCF-7, MTT, 72 h incubation
Experimental: as §1, §2, §3

HCT-116 cells = experiment: Clonogenic (colony-formation) assay; type: cell-based, human; details: HCT-116, 10 μM for 24 h, then 10 days in drug-free medium
Experimental: We next sought to investigate the effects of the MBA and compound 3b clonogenic potential of the HCT-116 cell line. The cells were treated with compounds 1 and 3b at 10 μM for 24 h. After harvesting, the cells were re-seeded and cultivated for another 10 days in a drug-free medium.
The HCT116 wt cells (5 × 10^4 cells/well) were plated in 6-well plates (Nunc, ThermoFisher, Waltham, USA) and treated with the tested compounds for 24 and 72 h. Cells were harvested by trypsinization and then re-seeded on the new 6-well plate (Nunc, ThermoFisher, Waltham, MA, USA) with a density of 2 × 10^3 cells/well. After 10 days the cells were washed with cold PBS (Sigma-Aldrich, Taufkirchen, Germany), fixed in ice-cold ethanol (−20 °C) for 3 minutes, air-dried, washed again with cold PBS and stained with 0.01% crystal violet (Sigma-Aldrich, Taufkirchen, Germany) in dH2O (deionized water) for 15 min. Next the plates were washed in dH2O and allowed to dry. Colonies were counted with a microscope (Zeiss, Oberkochen, Germany). Aggregates of 30 cells or more were considered as colonies. Photos were made using the G:Box transilluminator (Syngene, Cambridge, UK).

HepG2 = experiment: MTT assay, HepG2; type: cell-based; details: Homo sapiens, read-out: IC50 (cytotoxicity), HepG2
Experimental: as §1, §2
as §3, with “The experiment was performed at a minimum of 3 independent replicates. Cell viability was set as a percentage versus vehicle control. IC50 was defined as a concentration of a drug that decreased cell viability by 50% relative to the untreated control.” left out

[1] = MTT assay, normal bronchial epithelium cell line BEAS-2B; type: cell-based; details: human
Experimental: (§4) One of the major drawbacks of currently used anticancer drugs is their low selectivity, which often leads to undesired side effects that may be harmful to patients. Overcoming this challenging task requires special attention at the pre-clinical development level. To check whether silyl group incorporation may affect the selectivity of compounds towards cancer cells, MBA and all its new silyl derivatives were tested for their efficacy on noncancerous BEAS-2B and cancerous A549 cells line. […] In contrast, compounds 3a and 3d were more cytotoxic to A549 cells with SI values 6.05 and 1.72, respectively. Strikingly, those two compounds have similar cLogP values 3.08 and 3.22, respectively.
as §2, §3

HCT 116 wt = experiment: MTT assay, HCT 116 wt; type: cell-based, human; details: Homo sapiens, HCT-116, 72 h, read-out: IC50 (cytotoxicity), HCT 116 wt, MTT, 72 h incubation
Experimental: as §1, §2, §3

A549 = experiment: MTT assay, NSCLC cell line A549; type: cell-based, human; details: for IC50: Homo sapiens, read-out: IC50 (cytotoxicity), A549; for SI: selectivity, A549 versus BEAS-2B
Experimental: as §4, §2, §3

Hep3B = experiment: MTT assay, Hep3B; type: cell-based; details: Homo sapiens, read-out: IC50 (cytotoxicity), Hep3B
Experimental: as §1, §2, §3

[2] = system: panel of human cancer cell lines (HCT116, HCT-116 −/−p53, HT-29, MCF-7, SJSA-1, U2OS, HepG2 and Hep3B); experiment: MTT assay, panel of human cancer cell lines; type: cell-based; details: 72 h incubation, read-out: IC50 range across all tested cancer cells
Experimental: as §1
Human cells lines: colon cancer (HCT-116 wt, HT-29), non-small lung carcinoma (A549), and bronchial epithelial cells (BEAS-2B) were obtained from American Type Culture Collection (ATCC, Manassas, VA, USA). Isogenic cell line HCT 116 p53^−/− (deleted both p53 alleles) were a gift from Dr. Bert Vogelstein. Other cell lines, namely MCF-7, SJSA-1, U2OS, HepG2, and Hep3B were received from the collection stored at Centre of Biotechnology of Silesian University of Technology. […]
5 × 10^3 cells per well for the MCF-7 cell line and 2.5 × 10^3 cells per well for the other cell lines were seeded in 96-well plates to adhere for 24 h. […] The absorbance was measured at 570 nm wavelength using a multiwall plate reader (BioTek, Winooski, VT, USA). […]

[3] = BEAS-2B cells (noncancerous bronchial epithelial cells), MTT, 72 h incubation, noncancerous cells, read-out: IC50 (cytotoxicity), BEAS-2B

Structure (SMILES) | IC50 (SJSA-1; SJSA-1, 72 h) [µM] | IC50 (MCF-7) [µM] | clonogenic potential (re-growth of colonies) (HCT-116 cells) | IC50 (HepG2; HepG2, 72 h) [µM] | IC50 at 72 h [1] [µM] | IC50 (HCT 116 wt) [µM] | IC50 (A549; A549, 72 h) [µM] | SI (A549) | IC50 (Hep3B; 72 h) [µM] | IC50 (SJSA-1; SJSA-1, MTT, 72 h incubation) [µM] | IC50 at 72 h [1, 3] [µM] | IC50 [2] [µM] | IC50 (A549; A549, MTT, 72 h incubation) [µM] | IC50 (Hep3B; MTT, 72 h incubation) [µM] | IC50 (HepG2; HepG2, MTT, 72 h incubation) [µM]
O=C1OC(O)C(Br)=C1Br (stereo not drawn) [MBA, 3,4-dibromo-5-hydroxyfuran-2(5H)-one, reference compound] | 213 ± 8.8 | 142 ± 22.6 | attenuated the clonogenic potential of HCT-116 to a much less extent | 91.7 ± 2.2 | 39.7 ± 9.7 | 20.5 ± 5.2 | 203 ± 0.3 | 0.2 | 125 ± 10.5 |  |  |  |  |  | 
CC(C)(C)[Si](OC1OC(=O)C(Br)=C1Br)(c1ccccc1)c1ccccc1 (stereo not drawn) [Compound 3c, 3,4-Dibromo-5-(tert-butyldiphenylsilyloxy)-furan-2(5H)-one] |  | 10.9 ± 0.7 |  |  |  | 6.3 ± 0.3 |  | 0.70 |  | 14.9 ± 1.5 | 20.3 ± 0.6 | 3.9 to 65.6 | 29.1 ± 1 | 65.6 ± 2.2 | 
CC(C)[Si](OC1OC(=O)C(Br)=C1Br)(C(C)C)C(C)C (stereo not drawn) [Compound 3b, 3,4-Dibromo-5-(triisopropylsilyloxy)-furan-2(5H)-one] |  | 7.7 ± 0.9 | completely abolished the re-growth of HCT-116 colonies; also recorded: abolishes the clonogenic potential |  |  | 15.1 ± 1.2 |  | 0.41 |  | 9.9 ± 1.1 | 12.5 ± 1.4 | 7.3 to 21.3 | 30.4 ± 4.2 | 21.3 ± 3.5 | 15.6 ± 1.2
